Experimental data: patent US7390806B2, “Antibiotics containing borinic acid complexes and methods of use” (Anacor Pharmaceuticals, Inc., priority 2002, dated 2008)
In brackets after ≈: the same amount, converted by molar mass. Where two headings read alike, the source gives them in different places.

Legend:
S. aureus ATCC 29213 = experiment: MIC determination, S. aureus ATCC 29213; assay type: cell-based, Staphylococcus aureus; settings: for MIC: Staphylococcus aureus
[1] = tested on: S. epidermidis ATCC 12228; experiment: MIC determination, S. epidermidis ATCC 12228; assay type: cell-based, Staphylococcus epidermidis; settings: for MIC: Staphylococcus epidermidis
E. faecium CT-26 = experiment: MIC determination, E. faecium CT-26; assay type: cell-based, Enterococcus faecium; settings: for MIC: Enterococcus faecium
E. faecalis ATCC 29212 = experiment: MIC determination, E. faecalis ATCC 29212; assay type: cell-based, Enterococcus faecalis; settings: for MIC: Enterococcus faecalis
S. pneumoniae ATCC 6301 = experiment: MIC determination, S. pneumoniae ATCC 6301; assay type: cell-based, Streptococcus pneumoniae; settings: for MIC: Streptococcus pneumoniae; for MIC S. pneumoniae ATCC 6301: Table 1
[2] = tested on: M. catarrhalis ATCC 25238; experiment: MIC determination, M. catarrhalis ATCC 25238; assay type: cell-based; settings: for MIC M. catarrhalis ATCC 25238: Table 1; for MIC: Moraxella catarrhalis
[3] = ATCC29213, Table 1, read-out: MIC S. aureus ATCC 29213
[4] = ATCC12228, Table 1, read-out: MIC S. epidermidis ATCC 12228
[5] = CT26, Table 1, read-out: MIC E. faecium CT-26
[6] = ATCC29212, Table 1, read-out: MIC E. faecalis ATCC 29212
[7] = ATCC6301, Table 1, read-out: MIC S. pneumoniae ATCC 6301
[8] = ATCC25238, Table 1, read-out: MIC M. catarrhalis ATCC 25238

Row | Compound | MIC [1, 4] [µg/mL] | MIC (E. faecium CT-26; [5]) [µg/mL] | MIC (E. faecalis ATCC 29212; [6]) [µg/mL] | MIC S. aureus ATCC 29213 (S. aureus ATCC 29213; Table 1) [micrograms per ml] | MIC (S. pneumoniae ATCC 6301; [7]) [µg/mL] | MIC M. catarrhalis ATCC 25238 [2] [micrograms per ml] | MIC E. faecalis ATCC 29212 (E. faecalis ATCC 29212; Table 1) [micrograms per ml] | MIC S. epidermidis ATCC 12228 ([1]; Table 1) [micrograms per ml] | MIC S. pneumoniae ATCC 6301 (S. pneumoniae ATCC 6301) [micrograms per ml] | MIC E. faecium CT-26 (E. faecium CT-26; Table 1) [micrograms per ml] | further results
1 | 4-hydroxybenzimidazole [Compound 120] |  |  |  |  |  |  |  |  |  |  | MIC S. aureus ATCC 29213 (S. aureus ATCC 29213; Table 2): 0.125 micrograms per ml; MIC S. epidermidis ATCC 12228 ([1]; Table 2): 4 micrograms per ml; MIC E. faecium CT-26 (E. faecium CT-26; Table 2): 8 micrograms per ml; MIC E. faecalis ATCC 29212 (E. faecalis ATCC 29212; Table 2): 8 micrograms per ml
2 | Oc1cccc2nc[nH]c12 [Compound 11, 4-hydroxybenzimidazole] | 4 (≈ 29.8 µM) | 8 (≈ 59.6 µM) | 8 (≈ 59.6 µM) |  |  |  |  |  |  |  | MIC (S. aureus ATCC 29213; [3]): 0.125 µg/mL (≈ 0.932 µM)
3 | Oc1ccc(F)c2cccnc12 [Compound 12] | 2 (≈ 12.3 µM) | 4 (≈ 24.5 µM) | 8 (≈ 49 µM) | 0.125 | 2 (≈ 12.3 µM) | 2 |  |  |  |  | 
4 | Oc1ccc(Cl)c2cccnc12 [Compound 13] | 1 (≈ 5.57 µM) | 2 (≈ 11.1 µM) |  | 0.125 | 1 (≈ 5.57 µM) |  | 64 |  |  |  | MIC [2, 8]: 0.25 µg/mL (≈ 1.39 µM)
5 | Cc1ccnc2c(O)cccc12 [Compound 14] | 1 (≈ 6.28 µM) | 4 (≈ 25.1 µM) | 64 (≈ 402 µM) | 0.125 | 1 (≈ 6.28 µM) |  |  |  |  |  | MIC [2, 8]: 0.5 µg/mL (≈ 3.14 µM)
6 | Oc1cccc2cccnc12 [Compound 15, 8-hydroxyquinoline] |  |  |  | 0.125 |  | 0.5 | 16 | 1 | 2 | 4 | 
7 | Nc1ccc2cccc(O)c2n1 [Compound 17] |  |  |  |  |  |  |  |  |  |  | MIC (S. aureus ATCC 29213; ATCC29213, read-out: MIC S. aureus ATCC 29213): 0.25 µg/mL (≈ 1.56 µM); MIC ([1]; ATCC12228, read-out: MIC S. epidermidis ATCC 12228): 2 µg/mL (≈ 12.5 µM); MIC (S. pneumoniae ATCC 6301; ATCC6301, read-out: MIC S. pneumoniae ATCC 6301): 2 µg/mL (≈ 12.5 µM); MIC (E. faecium CT-26; CT26, read-out: MIC E. faecium CT-26): 8 µg/mL (≈ 49.9 µM); MIC (E. faecalis ATCC 29212; ATCC29212, read-out: MIC E. faecalis ATCC 29212): 8 µg/mL (≈ 49.9 µM); MIC ([2]; ATCC25238, read-out: MIC M. catarrhalis ATCC 25238): 2 µg/mL (≈ 12.5 µM)
8 | Oc1cccc2cccnc12 [Compound 18, 8-hydroxyquinoline] |  |  |  | 0.25 |  | 1 | 8 | 1 | 2 | 4 | 
9 | N#Cc1ccc(OB(c2cccc(Cl)c2)c2cccc(Cl)c2)c2ncccc12 [Compound 19, Bis(3-Chlorophenyl)borinic acid 5-cyano-8-hydroxyquinoline ester] |  |  |  | 0.25 |  | 0.5 | 16 | 2 | 4 | 4 | 
10 | Oc1cccc2cccnc12 [Compound 20, 8-hydroxyquinoline] |  |  |  | 0.25 |  | 2 | 8 | 1 | 2 | 4 | 
11 | N#Cc1ccc(O)c2ncccc12 [Compound 21, 5-cyano-8-hydroxyquinoline] | 4 (≈ 23.5 µM) | 8 (≈ 47 µM) | 16 (≈ 94 µM) |  | 2 (≈ 11.8 µM) |  |  |  |  |  | MIC (S. aureus ATCC 29213; [3]): 0.5 µg/mL (≈ 2.94 µM); MIC [2, 8]: 0.25 µg/mL (≈ 1.47 µM)
12 | O=[N+]([O-])c1ccc(O)c2ncccc12 [Compound 22] | 4 (≈ 21 µM) | 16 (≈ 84.1 µM) | 64 (≈ 337 µM) |  | 2 (≈ 10.5 µM) |  |  |  |  |  | MIC (S. aureus ATCC 29213; [3]): 0.5 µg/mL (≈ 2.63 µM); MIC [2, 8]: 0.12 µg/mL (≈ 0.631 µM)
13 | Oc1c(Cl)cc(Cl)c2cccnc12 [Compound 23] |  |  | 64 (≈ 299 µM) | 0.5 | 8 (≈ 37.4 µM) |  |  | 16 |  | 16 | MIC [2, 8]: 0.12 µg/mL (≈ 0.561 µM)
14 | Oc1c(Br)cc(Br)c2cccnc12 [Compound 24] | 8 (≈ 26.4 µM) | 32 (≈ 106 µM) | 64 (≈ 211 µM) |  | 8 (≈ 26.4 µM) |  |  |  |  |  | MIC (S. aureus ATCC 29213; [3]): 0.5 µg/mL (≈ 1.65 µM); MIC [2, 8]: 0.12 µg/mL (≈ 0.396 µM)
15 | COc1cccc2c(O)cc(C(=O)O)nc12 [Compound 25] | 8 (≈ 36.5 µM) | 16 (≈ 73 µM) | 16 (≈ 73 µM) |  | 2 (≈ 9.12 µM) |  |  |  |  |  | MIC (S. aureus ATCC 29213; [3]): 0.5 µg/mL (≈ 2.28 µM); MIC [2, 8]: 2 µg/mL (≈ 9.12 µM)
16 | CB(Oc1cccc2cccnc12)c1cccs1 [Compound 26, (2-Thienyl)methylborinic acid 8-hydroxyquinoline ester] |  |  |  | 0.5 |  |  | 4 | 1 |  | 4 | 
17 | Oc1cccc2cccnc12 [Compound 27, 8-hydroxyquinoline] |  |  |  | 0.5 |  | 1 | 8 | 1 | 1 | 2 | 
18 | Oc1cccc2cccnc12 [Compound 28, 8-hydroxyquinoline] |  |  |  | 0.5 |  | 1 | 4 | 1 | 2 | 2 | 
19 | Oc1cccc2cccnc12 [Compound 29, 8-hydroxyquinoline] |  |  |  | 0.5 |  | 0.5 | 8 | 1 | 2 | 2 | 
20 | Oc1cccc2cccnc12 [Compound 30, 8-hydroxyquinoline] |  |  |  | 1 |  |  | 2 | 0.5 |  | 2 | 
21 | O=C(O)c1cc(O)c2ccccc2n1 [Compound 31] | 1 (≈ 5.29 µM) | 1 (≈ 5.29 µM) | 2 (≈ 10.6 µM) |  |  |  |  |  |  |  | MIC (S. aureus ATCC 29213; [3]): 1 µg/mL (≈ 5.29 µM)
22 | Oc1cccc2cccnc12 [Compound 32, 8-hydroxyquinoline] |  |  |  | 1 |  | 2 | 16 | 1 | 1 | 2 | 
23 | Oc1cccc2cccnc12 [Compound 33, 8-hydroxyquinoline] |  |  |  | 1 |  | 2 | 8 | 1 | 1 | 2 | 
24 | Oc1cccc2cccnc12 [Compound 52, 8-hydroxyquinoline] |  |  |  | 2 |  |  | 8 | 4 |  | 16 | 
25 | Oc1cccc2cccnc12 [Compound 76, 8-hydroxyquinoline] |  |  |  | 2 |  |  | 8 | 1 |  | 4 | 
